The values below are quoted from earlier work in US12427126B2, “Niclosamide formulations and methods of use” (Florida State University Research Foundation, Inc., priority 2020, dated 2025).

For data set [1] the following is noted: administered orally.

For `O=C(Nc1ccc([N+](=O)[O-])cc1Cl)c1cc(Cl)ccc1O` [Niclosamide], the solubility entry is listed as “low solubility”. In addition, the systemic bioavailability result in data set [1] was “low systemic bioavailability”.
